Laboratory results taken from BindingDB's records for doi:10.1021/jm960459x (University of Minnesota, 1996).

Assay: Compound was tested for the binding affinity and selectivity by competitive inhibition of radioligands on opioid delta receptor in guinea pig brain membranes

| SMILES | Ki [nM] |
| --- | --- |
| CN(C(=O)Cc1ccc(Cl)c(Cl)c1)[C@H](CN1CCCC1)c1cccc(NC(=O)[C@H](N)CC(=O)O)c1 [(R)-3-Amino-N-[3-((S)-1-{[2-(3,4-dichloro-phenyl)-acetyl]-methyl-amino}-2-pyrrolidin-1-yl-ethyl)-phenyl]-succinamic acid] | 573 |
| CN(C(=O)Cc1ccc(Cl)c(Cl)c1)[C@H](CN1CCCC1)c1cccc(NC(=O)[C@@H](N)CC(=O)O)c1 [(S)-3-Amino-N-[3-((S)-1-{[2-(3,4-dichloro-phenyl)-acetyl]-methyl-amino}-2-pyrrolidin-1-yl-ethyl)-phenyl]-succinamic acid] | 1070 |
